According to US9301529B2, “Polysubstituted pyridyl pyrazolecarboxamide and preparation method and use thereof” (ZHAOQING ZHENGE BIOLOGICAL TECHNOLOGY CO., LTD, priority 2014, dated 2016):

Experiments:
Helicoverpa armigera = test: Determination of activity against Helicoverpa armigera, leaf dipping method (IRAC); assay type: in vivo; conditions: for insecticidal activity (mortality): leaf dipping, Brassica oleracea leaf, 72 hour
Source text: Determination of Activity Against Helicoverpa armigera
Leaf dipping method (proposed by Insecticide Resistance Action Committee, IRAC) was adopted: a leaf of Brassica oleracea was clamped by a tweezer and dipped into an insecticide solution having a certain concentration to be tested for 3 to 5 seconds, the excessive solution was threw off, one leaf at each time, three leaves for each sample. The leaves were placed onto a treatment paper according to sequence of sample marking and air-dried naturally, then put into a marked straight tube of 10 cm length, […] in, the tube opening was covered by a gauze, and placed into a standard treatment chamber, the result was checked and the mortality was calculated at 72 hour.
(§1) Some of the compounds in Example 1 were used to conduct the test, and a control compound was selected to conduct an indoor insecticidal activity data (%, concentration unit: ppm) determination test under the same condition, the results of the test was shown in Table 2.

Ostrinia furnacalis = test: Determination of activity against Ostrinia furnacalis, leaf dipping method; assay type: in vivo; conditions: for insecticidal activity (mortality): leaf dipping, Brassica oleracea leaf, 72 hours
Source text: Determination of Activity Against Ostrinia furnacalis
Leaf dipping method was adopted, a leaf of Brassica oleracea was clamped by a tweezer, and dipped in insecticide solution having a certain concentration for 3 to 5 seconds, the excessive solution was threw off, one leaf at each time, and three leaves for each sample. The leaves were placed onto a treatment paper according to the sequence of sample marking and air-dried naturally, then put into a marked straight tube of 10 cm length, and 30 Ostrinia furnacalis larvae being […] were place in, the tube opening was covered by a gauze, and placed in a standard treatment chamber, the result was checked and the mortality was calculated at 72 hours.
as §1

[1] = Helicoverpa armigera, in Brassica oleracea, foliar, 72 h, read-out: insecticidal activity (mortality)
[2] = Ostrinia furnacalis, in Brassica oleracea, foliar, 72 h, read-out: insecticidal activity (mortality)

## CC(C)(C)NC(=O)c1cc(Cl)cc(Cl)c1NC(=O)c1cc(Br)nn1-c1ncccc1Cl [Compound I-24, 1-(3-chloropyridine-2-yl)-3-bromo-N-(2,4-dichloro-6-tert-butylaminocarbonyl)phenyl-1H-pyrazole-5-formamide]
Helicoverpa armigera; 0.016 ppm
  insecticidal activity (mortality): 60%
Helicoverpa armigera; 0.031 ppm
  insecticidal activity (mortality): 80%
Helicoverpa armigera; 0.0625 ppm
  insecticidal activity (mortality): 100%
Helicoverpa armigera; 0.125 ppm
  insecticidal activity (mortality): 100%
Helicoverpa armigera; 0.25 ppm
  insecticidal activity (mortality): 100%
Helicoverpa armigera; 0.5 ppm
  insecticidal activity (mortality): 100%
Ostrinia furnacalis; 0.031 ppm
  insecticidal activity (mortality): 100%
Ostrinia furnacalis; 0.0625 ppm
  insecticidal activity (mortality): 100%
Ostrinia furnacalis; 0.125 ppm
  insecticidal activity (mortality): 100%
Ostrinia furnacalis; 0.25 ppm
  insecticidal activity (mortality): 100%
Ostrinia furnacalis; 0.5 ppm
  insecticidal activity (mortality): 100%

## CNC(=O)c1cc(Cl)cc(C)c1NC(=O)c1cc(Br)nn1-c1ncccc1Cl [KC]
Helicoverpa armigera; [1]
  mortality at 0.016 ppm: 0%
  mortality at 0.031 ppm: 0%
  mortality at 0.0625 ppm: 30%
  mortality at 0.125 ppm: 55%
  mortality at 0.25 ppm: 70%
  mortality at 0.5 ppm: 85%
Ostrinia furnacalis; [2]
  mortality at 0.016 ppm: 0%
  mortality at 0.031 ppm: 30%
  mortality at 0.0625 ppm: 55%
  mortality at 0.125 ppm: 75%
  mortality at 0.25 ppm: 100%
  mortality at 0.5 ppm: 100%
